*1 amine or outer side, *2 acyl side, *3 side chain or, on linkers, in order; H or OH if unused. Where a SMILES comes first, the peptide text is derived from it. Bridges are numbered along the chain shown (N, C = ends). [ ]: non-standard residue; d: D form. The star is where a group is joined. hPhe(3,5-F2-4-CF3) = N[C@@H](CCc1cc(F)c(C(F)(F)F)c(F)c1)C(=O)O; hPhe(3-Cl-4-CF3) = N[C@@H](CCc1ccc(C(F)(F)F)c(Cl)c1)C(=O)O; X31 = O=C([C@H](Cc1ccc(C(F)(F)F)cc1)N(CC1CC1)[*:1])[*:2]; NPrPhe(4-CF3) = CCCN[C@@H](Cc1ccc(C(F)(F)F)cc1)C(=O)O; NMeGly(cPent) = CN[C@H](C(=O)O)C1CCCC1; NMeD = CN[C@@H](CC(=O)O)C(=O)O; NMeL = CN[C@@H](CC(C)C)C(=O)O; Morpholide = C1CN(*)CCO1; NMeA = CN[C@@H](C)C(=O)O; Ac5c = NC1(C(=O)O)CCCC1; Aze = O=C(O)[C@@H]1CCN1; Ac4c = NC1(C(=O)O)CCC1; Sar = CNCC(=O)O
What was measured:
[1] = biological target: GDP-bound HRAS wild-type protein (Homo sapiens, UniProt P01112); assay: Binding to HRAS by surface plasmon resonance (SPR), Single Cycle Kinetics
[2] = biological target: GDP-bound NRAS wild-type protein (Homo sapiens, UniProt P01111); assay: Binding to NRAS by surface plasmon resonance (SPR), Single Cycle Kinetics
[3] = SPR, GDP-bound HRAS wild-type vs GDP-bound KRAS wild-type
[4] = SPR, GDP-bound NRAS wild-type vs GDP-bound KRAS wild-type

Chain of GDP-bound HRAS wild-type protein (P01112 whole entry): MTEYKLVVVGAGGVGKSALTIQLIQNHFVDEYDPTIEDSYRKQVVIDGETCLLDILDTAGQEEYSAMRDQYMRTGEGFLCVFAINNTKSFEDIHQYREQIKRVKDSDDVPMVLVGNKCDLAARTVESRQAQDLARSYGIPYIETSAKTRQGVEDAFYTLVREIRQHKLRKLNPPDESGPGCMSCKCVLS
Chain of GDP-bound NRAS wild-type protein (P01111 whole entry): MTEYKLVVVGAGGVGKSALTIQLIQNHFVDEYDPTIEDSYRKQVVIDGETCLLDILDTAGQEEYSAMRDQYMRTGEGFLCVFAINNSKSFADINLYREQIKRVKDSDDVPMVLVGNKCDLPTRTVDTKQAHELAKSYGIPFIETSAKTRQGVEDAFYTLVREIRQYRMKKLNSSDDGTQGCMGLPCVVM

CCCN1C(=O)[C@@H]2CCN2C(=O)[C@H](C)N(C)C(=O)[C@H]([C@@H](C)CC)NC(=O)[C@H](CC(C)C)N(C)C(=O)C[C@@H](C(=O)N2CCOCC2)NC(=O)[C@H](C2CCCC2)N(C)C(=O)C2(CCC2)NC(=O)[C@@H]2CCCN2C(=O)[C@H](CCc2ccc(C(F)(F)F)c(Cl)c2)NC(=O)CN(C)C(=O)[C@@H]1Cc1ccc(C(F)(F)F)cc1 [PP0344] ([NMeL]I[NMeA][Aze][NPrPhe(4-CF3)][Sar][hPhe(3-Cl-4-CF3)]P[Ac4c][NMeGly(cPent)]D-Morpholide; lactam N-11)
HRAS/KRAS (ratio of KD for GDP-bound HRAS wild-type to KD for KRAS) ([1]; SPR): B (a compound having 3 or more and less than 10 is denoted as B) | NRAS/KRAS (ratio of KD for GDP-bound NRAS wild-type to KD for KRAS) ([2]; SPR): C (A compound having a KD ratio of 0.1 or more and less than 3 is denoted as C)

CCO[C@@H]1C[C@H]2C(=O)NC3(CC(C)(C)C3)C(=O)N(C)[C@@H](C(CC)CC)C(=O)N(C)[C@H](C(=O)N3CCCC3)CC(=O)N(C)[C@H]3CCC/C=C/c4ccc(cc4)C[C@@H](C(=O)N(C)CC(=O)N[C@@H](CCc4cc(F)c(C(F)(F)F)c(F)c4)C(=O)N2C1)N1CC/C=C\C[C@@H](C1=O)N(C)C(=O)CN(C)C(=O)[C@H]([C@@H](C)CC)NC3=O [PP2576]
HRAS/KRAS (ratio of KD value with respect to GDP-bound HRAS wild-type protein to KD value with respect to KRAS) ([1]; class symbols): A (a compound having 10 or more and less than 20 is denoted as A) | NRAS/KRAS (ratio of KD value with respect to GDP-bound NRAS wild-type protein to KD value with respect to KRAS) ([2]; class symbols): A (a compound having 10 or more and less than 20 is denoted as A)

CCC[C@H]1C(=O)N[C@@H]([C@@H](C)CC)C(=O)N(C2CC2)CC(=O)N(C)[C@H]2C/C=C\CCN(C2=O)[C@@H](Cc2ccc(C)cc2)C(=O)N(C)CC(=O)N[C@@H](CCc2ccc(C(F)(F)F)c(OC)c2)C(=O)N2C[C@H](OCC)C[C@H]2C(=O)N(C)C2(CCC2)C(=O)N(C)[C@@H](C(CC)CC)C(=O)N(C)[C@H](C(=O)N(C)C)CC(=O)N1C [PP2325]
HRAS/KRAS (ratio of KD value with respect to HRAS to KD value with respect to KRAS) [1, 3]: A (a compound having 10 or more and less than 20 is denoted as A) | NRAS/KRAS (ratio of KD value with respect to NRAS to KD value with respect to KRAS) [2, 4]: A (a compound having 10 or more and less than 20 is denoted as A)

CC[C@H](C)[C@@H]1NC(=O)[C@H](CC(C)C)N(C)C(=O)C[C@@H](C(=O)N2CCOCC2)N(C)C(=O)[C@H](C2CCCC2)N(C)C(=O)C2(CCC2)NC(=O)[C@@H]2C[C@@H](C(F)(F)F)CN2C(=O)[C@H](CCc2cc(F)c(C(F)(F)F)c(F)c2)NC(=O)CN(C)C(=O)[C@H](Cc2ccc(C(F)(F)F)cc2)N2CCCC[C@@H](C2=O)N(C)C(=O)CN(C)C1=O [PP0809]
HRAS/KRAS (ratio of KD value with respect to GDP-bound HRAS wild-type protein to KD value with respect to KRAS) ([1]; SPR): B (a compound having 3 or more and less than 10 is denoted as B) | NRAS/KRAS (ratio of KD value with respect to GDP-bound NRAS wild-type protein to KD value with respect to KRAS) ([2]; SPR): B (a compound having 3 or more and less than 10 is denoted as B)

CCO[C@@H]1C[C@H]2C(=O)N(C)C3(CCC3)C(=O)N(C)[C@@H](C3CCCC3)C(=O)N(C)[C@H](C(=O)N(C)C)CC(=O)N(C)[C@@H](CC3CC3)C(=O)N[C@@H]([C@@H](C)CC)C(=O)N3CCC[C@H]3C(=O)N(C)[C@H]3C/C=C\CCN(C3=O)[C@@H](Cc3ccc(C)cc3)C(=O)N(C)CC(=O)N[C@@H](CCc3cc(F)c(C(F)(F)F)c(F)c3)C(=O)N2C1 [PP1797]
HRAS/KRAS (ratio of KD value for HRAS to KD value for KRAS) ([1]; KD ratio, GDP-bound HRAS wild-type vs GDP-bound KRAS wild-type, SPR): A (a compound having 10 or more and less than 20 is denoted as A) | NRAS/KRAS (ratio of KD value for NRAS to KD value for KRAS) ([2]; KD ratio, GDP-bound NRAS wild-type vs GDP-bound KRAS wild-type, SPR): A (a compound having 10 or more and less than 20 is denoted as A)

CCCN1C(=O)[C@@H]2CCN2C(=O)CN(C)C(=O)[C@H]([C@@H](C)CC)NC(=O)[C@H](CC(C)C)N(C)C(=O)C[C@@H](C(=O)N2CCOCC2)N(C)C(=O)[C@H](C2CCCC2)N(C)C(=O)C2(CCCC2)NC(=O)[C@@H]2CCCN2C(=O)[C@H](CCc2cc(F)c(C(F)(F)F)c(F)c2)NC(=O)CN(C)C(=O)[C@@H]1Cc1ccc(C(F)(F)F)cc1 [PP0789] ([NMeL]I[Sar][Aze][NPrPhe(4-CF3)][Sar][hPhe(3,5-F2-4-CF3)]P[Ac5c][NMeGly(cPent)][NMeD]-Morpholide; lactam N-11)
HRAS/KRAS (ratio of KD value with respect to GDP-bound HRAS wild-type protein to KD value with respect to KRAS) ([1]; SPR): B (a compound having 3 or more and less than 10 is denoted as B) | NRAS/KRAS (ratio of KD value with respect to GDP-bound NRAS wild-type protein to KD value with respect to KRAS) ([2]; SPR): C (A compound having a KD ratio of 0.1 or more and less than 3 is denoted as C)

CC[C@H](C)[C@@H]1NC(=O)[C@H](CC(C)C)N(C)C(=O)C[C@@H](C(=O)N2CCOCC2)N(C)C(=O)[C@H](C2CCCC2)N(C)C(=O)C2(CCCC2)NC(=O)[C@@H]2CCCN2C(=O)[C@H](CCc2ccc(C(F)(F)F)c(Cl)c2)NC(=O)CN(C)C(=O)[C@H](Cc2ccc(C(F)(F)F)cc2)N(CC2CC2)C(=O)CN(C)C(=O)CN(C)C1=O [PP0122] ([NMeL]I[Sar][Sar][X31][Sar][hPhe(3-Cl-4-CF3)]P[Ac5c][NMeGly(cPent)][NMeD]-Morpholide; lactam N-11)
HRAS/KRAS (ratio of KD for GDP-bound HRAS wild-type to KD for KRAS) ([1]; SPR): C (A compound having a KD ratio of 0.1 or more and less than 3 is denoted as C) | NRAS/KRAS (ratio of KD for GDP-bound NRAS wild-type to KD for KRAS) ([2]; SPR): C (A compound having a KD ratio of 0.1 or more and less than 3 is denoted as C)

CCO[C@@H]1C[C@H]2C(=O)NC3(CC(C)(C)C3)C(=O)N(C)[C@@H](C3CCCC3)C(=O)N(C)[C@H](C(=O)N(CC)CC)CC(=O)N(C)[C@@H](COC)C(=O)N[C@@H]([C@@H](C)CC)C(=O)N(C)CC(=O)N(C)[C@H]3C/C=C\CCN(C3=O)[C@@H](Cc3ccc(C)cc3)C(=O)N(C)CC(=O)N[C@@H](CCc3cc(F)c(C(F)(F)F)c(F)c3)C(=O)N2C1 [PP2403]
HRAS/KRAS (ratio of KD value with respect to HRAS to KD value with respect to KRAS) [1, 3]: A (a compound having 10 or more and less than 20 is denoted as A) | NRAS/KRAS (ratio of KD value with respect to NRAS to KD value with respect to KRAS) [2, 4]: A (a compound having 10 or more and less than 20 is denoted as A)

C#CCN1CC(=O)N(C)[C@H]2C/C=C\CCN(C2=O)[C@@H](Cc2ccc(C(F)(F)F)cc2)C(=O)N(C)CC(=O)N[C@@H](CCc2ccc(C(F)(F)F)c(OC)c2)C(=O)N2C[C@H](OCC)C[C@H]2C(=O)NC2(CC(C)(C)C2)C(=O)N(C)[C@@H](C2CCCC2)C(=O)N(C)[C@H](C(=O)N(C)C)CC(=O)N(C)[C@@H](CC)C(=O)N[C@@H]([C@@H](C)CC)C1=O [PP2091]
HRAS/KRAS (ratio of KD value with respect to HRAS to KD value with respect to KRAS) [1, 3]: B (a compound having 3 or more and less than 10 is denoted as B) | NRAS/KRAS (ratio of KD value with respect to NRAS to KD value with respect to KRAS) [2, 4]: A (a compound having 10 or more and less than 20 is denoted as A)

C#CCN1CC(=O)N(C)[C@H]2C/C=C\CCN(C2=O)[C@@H](Cc2ccc(C)cc2)C(=O)N(C)CC(=O)N[C@@H](CCc2cc(F)c(C(F)(F)F)c(F)c2)C(=O)N2C[C@H](OCC)C[C@H]2C(=O)NC2(CC(C)(C)C2)C(=O)N(C)[C@@H](C2CCCC2)C(=O)N(C)[C@H](C(=O)N(C)C)CC(=O)N(C)[C@@H](CCC)C(=O)N[C@@H](CC(C)C)C1=O [PP2512]
HRAS/KRAS (ratio of KD value with respect to HRAS to KD value with respect to KRAS) [1, 3]: A (a compound having 10 or more and less than 20 is denoted as A) | NRAS/KRAS (ratio of KD value with respect to NRAS to KD value with respect to KRAS) [2, 4]: A (a compound having 10 or more and less than 20 is denoted as A)

CCO[C@@H]1C[C@H]2C(=O)NC3(CC(C)(C)C3)C(=O)N(C)[C@@H](C(CC)CC)C(=O)N(C)[C@H](C(=O)N(C)C)CC(=O)N(C)[C@@H](CC(C)C)C(=O)N[C@@H]([C@@H](C)CC)C(=O)N(C)CC(=O)N(C)[C@H]3C/C=C\CCN(C3=O)[C@@H](Cc3ccc(C)cc3)C(=O)N(C)CC(=O)N[C@@H](CCc3cc(F)c(C(F)(F)F)c(F)c3)C(=O)N2C1 [PP2141]
HRAS/KRAS (ratio of KD value with respect to HRAS to KD value with respect to KRAS) [1, 3]: A (a compound having 10 or more and less than 20 is denoted as A) | NRAS/KRAS (ratio of KD value with respect to NRAS to KD value with respect to KRAS) [2, 4]: A (a compound having 10 or more and less than 20 is denoted as A)
